The values that follow come from patent US11331299B2, “Medicinal use of serrulatane diterpenes” (The University of Sydney, priority 2016, dated 2022).

The subject of data set [1] is Steroid 5alpha-Reductase. As to the kind of experiment: Steroid 5α-Reductase. As to conditions: 10 μM; assay year 2015. Format: biochemical, Wistar Rat. As to the method: (§1) The in vitro pharmacological studies were conducted by Eurofins PanLab (Taiwan) using the parameters shown in Table 13 with respect to appropriate literature references.
In data set [2] the target is T1, CBX5 (h) chromodomain (Homo sapiens, UniProt P45973).
T1 construct: Recognition and specificity determinants of the human cbx chromodomains; Eurofins CEREP (France), contract laboratory
In words: Epigenetic binding assay, Chromodomain. Conditions: read-out: % Inhibition of Control Specific Binding.

For data set [3], the target named is DNMT3b (Homo sapiens, UniProt Q9UBC3). As to the kind of experiment: Epigenetic enzyme assay, DNA methyltransferases (DNMTs). As to conditions: for inhibition at 10 µM: read-out: % Inhibition of Control Values. Format: biochemical.
Data set [4] deals with H3K9 me2. As to the kind of experiment: Cell-based detection methyl modifications. As to conditions: read-out: % Inhibition of Control Values.
Data set [5] deals with T2, Deacetylase, Histone 2 (Homo sapiens, UniProt Q92769).
T2 construct: host or cells: Insect Sf9 cells
As to the kind of experiment: Deacetylase, Histone 2 (PanLab). In kind it is biochemical. As to the method:
as §1

In data set [6] the target is T3, TRIM 33 (h) PHD domain (Homo sapiens, UniProt Q9UPN9).
T3 construct: Eurofins CEREP (France), contract laboratory
T3 sequence (Q9UPN9 887-934 limits assumed): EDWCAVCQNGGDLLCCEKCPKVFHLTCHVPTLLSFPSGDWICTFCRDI
In words: Epigenetic binding assay, PHD domain. Conditions: for inhibition at 10 µM: read-out: % Inhibition of Control Specific Binding.

The target in data set [7] is T4, CBX8 (h) chromodomain (Homo sapiens, UniProt Q9HC52).
T4 construct: Recognition and specificity determinants of the human cbx chromodomains; Eurofins CEREP (France), contract laboratory
T4 sequence (Q9HC52 11-69 limits assumed): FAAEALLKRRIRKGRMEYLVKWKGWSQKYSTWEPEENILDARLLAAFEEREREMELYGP
In words: Epigenetic binding assay, Chromodomain. Conditions: read-out: % Inhibition of Control Specific Binding.

Data set [8] deals with A204 (soft tissue sarcoma). In words: OncoPanel cell proliferation assay (10-day). Format: cell-based. As to conditions: Homo sapiens; for EC50: read-out: Cell Count EC50; for IC50: read-out: Cell Count IC50.
The target of data set [9] is T5, ASH1L (h) bromodomain (Homo sapiens, UniProt Q9NR48).
T5 construct: ASH1L (h) bromodomain
In words: Epigenetic binding assay, Bromodomain. Conditions: for inhibition at 10 µM: read-out: % Inhibition of Control Specific Binding.

Data set [10] concerns HUVEC endothelium cells (normal cell line). As to the kind of experiment: In vitro cell viability assay (intracellular ATP, 72 hour). In kind it is cell-based. As to conditions: 10 μM; for % Cell growth: HUVEC, Endothelium (Normal).
The target in data set [11] is T6, BAP1 (h) (Homo sapiens, UniProt Q92560).
T6 sequence (Q92560 1-729): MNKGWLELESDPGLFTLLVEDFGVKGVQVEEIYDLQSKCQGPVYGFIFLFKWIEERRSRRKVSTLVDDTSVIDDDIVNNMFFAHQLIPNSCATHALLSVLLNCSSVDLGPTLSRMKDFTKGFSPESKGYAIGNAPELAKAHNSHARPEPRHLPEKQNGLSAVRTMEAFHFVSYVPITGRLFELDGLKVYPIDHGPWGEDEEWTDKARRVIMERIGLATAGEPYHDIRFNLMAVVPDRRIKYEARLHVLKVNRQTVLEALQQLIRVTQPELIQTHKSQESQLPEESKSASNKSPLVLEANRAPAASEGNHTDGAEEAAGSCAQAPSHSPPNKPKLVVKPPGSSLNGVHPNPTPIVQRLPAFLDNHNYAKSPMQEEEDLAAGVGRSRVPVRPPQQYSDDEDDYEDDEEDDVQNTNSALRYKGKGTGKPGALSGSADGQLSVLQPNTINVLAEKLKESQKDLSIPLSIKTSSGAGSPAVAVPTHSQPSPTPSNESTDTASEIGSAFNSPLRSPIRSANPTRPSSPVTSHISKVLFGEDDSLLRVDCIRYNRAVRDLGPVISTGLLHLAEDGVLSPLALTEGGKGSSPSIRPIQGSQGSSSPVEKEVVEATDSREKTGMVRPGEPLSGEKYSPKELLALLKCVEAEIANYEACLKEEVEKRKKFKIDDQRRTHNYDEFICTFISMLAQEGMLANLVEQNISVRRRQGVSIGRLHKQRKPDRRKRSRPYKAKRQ
In words: Epigenetic enzyme assay, Ubiquitin modifying enzymes. Format: biochemical. As to conditions: 10 μM; read-out: % Inhibition of Control Values.

Data set [12] concerns the target T7, HAT1(h) (Homo sapiens, UniProt O14929).
T7 sequence (O14929 1-419): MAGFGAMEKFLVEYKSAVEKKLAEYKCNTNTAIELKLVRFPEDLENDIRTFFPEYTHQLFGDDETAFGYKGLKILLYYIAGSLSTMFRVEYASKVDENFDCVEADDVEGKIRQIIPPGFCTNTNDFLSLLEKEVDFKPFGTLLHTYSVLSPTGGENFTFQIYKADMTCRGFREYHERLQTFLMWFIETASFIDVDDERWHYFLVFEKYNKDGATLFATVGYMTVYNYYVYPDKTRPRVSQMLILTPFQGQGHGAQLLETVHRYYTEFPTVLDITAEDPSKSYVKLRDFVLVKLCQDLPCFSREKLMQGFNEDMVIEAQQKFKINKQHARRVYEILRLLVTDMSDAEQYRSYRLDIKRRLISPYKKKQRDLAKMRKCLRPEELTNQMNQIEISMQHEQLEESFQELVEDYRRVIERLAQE
In words: Epigenetic enzyme assay, Histone acetyltransferases (HATs). Format: biochemical. As to conditions: read-out: % Inhibition of Control Values.

[13] abbreviates: assay year 2014, read-out: % Control Response.
Setting [14] is: assay year 2015, read-out: % Control Response.
Setting [15] is: A204, Soft Tissue - Sarcoma, read-out: Cell Count GI50.

SMILES strings stand for the structures. Like-named read-outs stand apart in the source and are kept apart here.

T1 sequence (P45973 20-78 limits assumed): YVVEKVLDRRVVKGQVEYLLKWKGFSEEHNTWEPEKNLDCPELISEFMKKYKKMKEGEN
T2 sequence (Q92769 whole entry): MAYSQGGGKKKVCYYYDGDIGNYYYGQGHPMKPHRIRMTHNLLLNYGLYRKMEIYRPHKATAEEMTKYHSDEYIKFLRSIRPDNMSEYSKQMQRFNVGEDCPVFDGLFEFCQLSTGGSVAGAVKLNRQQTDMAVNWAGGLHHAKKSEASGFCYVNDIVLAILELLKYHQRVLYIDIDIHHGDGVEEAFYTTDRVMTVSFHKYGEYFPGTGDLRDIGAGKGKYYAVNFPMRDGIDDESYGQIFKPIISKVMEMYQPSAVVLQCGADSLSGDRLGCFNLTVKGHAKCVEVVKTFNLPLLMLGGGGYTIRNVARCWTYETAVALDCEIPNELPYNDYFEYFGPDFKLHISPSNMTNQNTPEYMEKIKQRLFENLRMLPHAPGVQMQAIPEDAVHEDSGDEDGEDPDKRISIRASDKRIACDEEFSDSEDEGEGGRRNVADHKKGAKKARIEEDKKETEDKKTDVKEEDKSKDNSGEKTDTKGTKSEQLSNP

With `CC(C)=CCC[C@@H]1C(O)Oc2c(C)cc(O)c3c2[C@H]1CC[C@H]3C` (stereo partly drawn) [Compound 2, 5,18-epoxyserrulat-14-en-8,18-diol], the “% Control Response” value in data set [1] is −6%. Besides, the inhibition (as a rule, the relative decrease from the control value, in per cent) at 10 µM in data set [2] was 24%; in [3] it was -17%; in data set [4], 11%; in data set [6], 3%; in data set [7] it was 31%; in data set [9] (10 μM), 59%. For the same compound, the values for the inhibition at 10 µM in data set [11] and in data set [12] were -9% and 3%, respectively. The remaining activity at 10 µM came to 44% in [5] (setting [13]) and 21% in [5] (setting [14]). Besides, the EC50 (in general, the concentration needed to bring the measured effect to its halfway point) in data set [8] (A204, Soft Tissue - Sarcoma) turned out to be 8460 nM. Moreover, the GI50 (commonly the concentration that inhibits growth by half) in data set [8] (setting [15]) amounted to 8500 nM. Moreover, the IC50 (usually the concentration needed to halve the response being measured) in [8] (A204, Soft Tissue - Sarcoma) was found to be 8540 nM. For the same compound, the “% Cell growth” value in data set [10] worked out at 97%.
`CC(C)=CCC[C@@H]1COc2c(C)cc(O)c3c2[C@H]1CC[C@H]3C` [Compound 3, 5,18-epoxy-8-hydroxyserrulat-14-ene]: the “% Control Response” value in data set [1] turned out to be 3%. Moreover, the inhibition at 10 µM in data set [2] is 25%; in [3], -4%; in data set [4], 20%; in data set [6] it was -2%; in data set [7], 23%; in data set [9] (10 μM), 42%. Further, the inhibition at 10 µM in data set [11] was 24%; in [12] it was -3%. Further, the remaining activity at 10 µM in data set [5] (setting [14]) was 12%. Besides, in [10], the “% Cell growth” value was 91%.
Turning to `CC(C)=CCC[C@H](CO)[C@@H]1CC[C@@H](C)c2c1cc(C)c(O)c2O` [Compound 1, 7,8,18-trihydroxyserrulat-14-ene], the “% Control Response” value in data set [1] is given as 2%. The inhibition at 10 µM in [2] is 25%; in data set [3] it was -3%; in [4], 1%; in data set [6], 59%; in data set [7], 27%; in data set [9] (10 μM), 95%. For the same compound, the inhibition at 10 µM in data set [11] is 1%; in data set [12], -3%. The remaining activity at 10 µM in data set [5] (setting [13]) was 56%; in data set [5] (setting [14]) it was 34%. The “% Inhibition of Control Specific Binding” value in data set [6] (10 μM) is reported as “good inhibitory activity”; in data set [9] (10 μM) it was “significant inhibitory activity”. In addition, the EC50 in [8] (A204, Soft Tissue - Sarcoma) came out at 520 nM. Further, in data set [8] (setting [15]), the GI50 stood at 520 nM. In addition, the IC50 in data set [8] (A204, Soft Tissue - Sarcoma) is 540 nM; in data set [9] (Table 9, inhibition/concentration-response curve, read-out: IC50), 4200 nM. For the same compound, the “inhibition of binding, 1st” value in [9] (3.0E−05M) was 100.6; in [9] (3.0E−06M), 17.0; in [9] (3.0E−07M), −0.2; in [9] (3.0E−08M) it was −12.3; in data set [9] (3.0E−09M), −2.6. In addition, the “inhibition of binding, 2nd” value was 99.6 in [9] (3.0E−05M); 28.0 in data set [9] (3.0E−06M); −2.9 in data set [9] (3.0E−07M); 1.8 in data set [9] (3.0E−08M); −8.2 in data set [9] (3.0E−09M). For the same compound, the “inhibition of binding, Mean” value in data set [9] (3.0E−05M) is given as 100.1; in [9] (3.0E−06M), 22.5; in data set [9] (3.0E−07M) it was −1.6; in data set [9] (3.0E−08M), −5.2; in data set [9] (3.0E−09M) it was −5.4. In data set [10], the “% Cell growth” value was −90%.
Turning to `CC(C)=CCC[C@H](C)[C@@H]1CC[C@@H](C)c2c1cc(C)c(O)c2O` [Compound 4, 7,8-dihydroxyserrulat-14-ene], in data set [8] (A204, read-out: GI50), the GI50 was found to be 684 nM. In addition, in data set [8] (A204, Soft Tissue - Sarcoma), the half-maximal effective concentration (EC50) is 720 nM and the IC50 turned out to be 720 nM. For the same compound, in data set [8] (setting [15]), the GI50 came to 680 nM. Further, in data set [10], the “reduction in the growth” value was “no significant reduction” and the “% Cell growth” value amounted to 37%.
For the compound `Nc1ncnc2c1ncn2[C@@H]1O[C@H](CSCC[C@H](N)C(=O)O)[C@@H](O)[C@H]1O` [SAH], the IC50 in data set [3] (read-out: Reference IC50) turned out to be 94 nM.
